Laboratory results published in patent US20070292384A1, “Water soluble micelle-forming and biodegradable cyclotriphosphazene-taxol conjugate anticancer agent and preparation method thereof” (priority 2006, published 2007).
Like-named read-outs stand apart in the source and are kept apart here.

Assays:
[1] = system: MCF-7 breast cancer cell line; assay: In vitro cytotoxicity, MCF-7; format: cell-based; conditions: average ± SD, n = 3-4
Description: (§1) In order to evaluate the anticancer activity of the cyclotriphosphazene-taxol conjugates of the present invention, in vitro cytotoxicity of the representative compound of Example 1 was assayed both in saline and in pure water according to a standard testing procedure (Y. J. Jun, et al., J. Inorg. Biochem. (2005) 99:1593-1601), and the test results are shown in Table 1 below.

[2] = system: SK-OV3 ovarian cancer cell line; assay: In vitro cytotoxicity, SK-OV3; format: cell-based; conditions: average ± SD, n = 3-4
Description: as §1

[3] = DLS measurement of micelle formation and micelle size; format: physicochemical; conditions: 0.1 to 0.5% in distilled water, Malvern Zetasizer (Nano-ZS)
Description: It was determined by a DLS (dynamic light scattering) method whether the cyclotriphosphazene-taxol conjugates prepared according to the present invention are aggregated in aqueous solution through interaction of the hydrophobic oligopeptide groups, so as to form micelles, according to the following procedure: A size distribution of an aqueous solution, in which 0.1 to 0.5% of the cyclotriphosphazene-taxol conjugate prepared in Example 1 was dissolved in distilled water, was measured by a DLS method using Malvern Zetasizer (Nano-ZS).

A-431 = assay: In vitro cytotoxicity, A-431; format: cell-based; conditions: average ± SD, n = 3-4
Description: as §1

[4] = system: MDA-MB-231 breast cancer cell line; assay: In vitro cytotoxicity, MDA-MB-231; format: cell-based; conditions: average ± SD, n = 3-4
Description: as §1

[5] = Blood metabolism study in rats (HPLC of blood samples); format: in vivo, male Sprague-Dawley rats; conditions: rat
Description: To a group consisting of 4 male Sprague-Dawley rats (270-300 g) was administered the compound of Example 2 dissolved in a PBS solution at a concentration of 6.67 mg/ml by intravenous infusion with a dosage of 5 mg/kg for 3 minutes. After the drug administration, blood (100 μl) samples were taken from each rat for 48 hours at 0, 0.08, 0.5, 1, 2, 3, 4, 6, 8, 12, 24, 36 and 48 hours post injection, and the samples were analyzed with HPLC, and the results are presented in Table 2 below.

[6] = intravenous infusion 5 mg/kg for 3 minutes, average

Molecule: [tris(methoxy-polyethyleneglycol350)][tris(glycyllysinemethylester)-mono-2′-succinyltaxol]cyclotriphosphazene [Example 1]
- IC50 ([1]; in pure water): 447 ± 138 nM
- IC50 ([1]; in saline solution): 129 ± 37.5 nM
- IC50 ([2]; in pure water): 503 ± 114 nM
- IC50 ([2]; in saline solution): 138 ± 14.3 nM
- micelle radius (DLS) [3]: 105 nm
- IC50 (A-431; in pure water): 380 ± 89.2 nM
- IC50 (A-431; in saline solution): 53.8 ± 13.9 nM
- IC50 ([4]; in pure water): 327 ± 54.5 nM
- IC50 ([4]; in saline solution): 108 ± 10.9 nM

Molecule: CC(=O)O[C@H]1C(=O)[C@@]2(C)[C@H]([C@H](OC(=O)c3ccccc3)[C@]3(O)C[C@H](OC(=O)[C@H](O)[C@@H](NC(=O)c4ccccc4)c4ccccc4)C(C)=C1C3(C)C)[C@]1(OC(C)=O)CO[C@@H]1C[C@@H]2O [Taxol (free), Taxol]
- IC50 ([1]; Homo sapiens, MCF7, free taxol): 39 ± 4.9 nM
- AUC(0-t) ([5]; male, Sprague-Dawley, blood, intravenous infusion 5 mg/kg for 3 minutes, average, sampling to 48 hours): 1970 ng·h/mL
- AUC(0-inf) ([5]; male, Sprague-Dawley, blood, intravenous infusion 5 mg/kg for 3 minutes, average, read-out: AUCINF (measurement)): 2290 ng·h/mL
- C0 ([5]; male, Sprague-Dawley, blood, intravenous infusion 5 mg/kg for 3 minutes, average, read-out: C0): 2700 ng/mL
- AUClast/AUCINF [5, 6]: 85.9%
- Cl_obs [5, 6]: 556.2 mL/h
- Lambda z [5, 6]: 0.275 h⁻¹
- Vz_obs [5, 6]: 2778.1 mL
- t½_Lambda z [5, 6]: 3.54 h
- IC50 ([2]; Homo sapiens, SK-OV-3, free taxol): 65.8 ± 0.5 nM
- IC50 (A-431; Homo sapiens, A-431, free taxol): 25.1 ± 8.9 nM
- IC50 ([4]; Homo sapiens, MDA-MB-231, free taxol): 47.1 ± 12.2 nM

Molecule: [tris(methoxy-polyethyleneglycol550)][tris(glycyllysinemethylester)-mono-2′-succinyltaxol]cyclotriphosphazene [Example 2]
- AUCINF (measurement) [5, 6]: 2.55
- AUClast/AUCINF [5, 6]: 77.1%
- C0 [5, 6]: 1530 ng/mL
- Cl_obs [5, 6]: 513.3 mL/h
- Lambda z [5, 6]: 0.133 h⁻¹
- Vz_obs [5, 6]: 4468.9 mL
- t½_Lambda z [5, 6]: 6.29 h
- AUClast ([5]; intravenous infusion 5 mg/kg for 3 minutes, average, sampling to 48 hours): 1970 ng·h/mL
- in vivo half life relative to free taxol ([5]; intravenous, compared with free taxol not formulated): twice longer
